Patent US9550742B2, “11-OXO-10,11-dihydrodibenzo[B,F][1,4]thiazepine S-oxide derivatives and their use as dopamine D2 receptor antagonists” (The United States of America, as Represented by the …, priority 2013, dated 2017)
Like-named read-outs stand apart in the source and are kept apart here.

Key:
D2 DAR = molecular target: T1, D2 DAR (Homo sapiens, UniProt P14416); experiment: D2 Ca^2+ screen assay (calcium accumulation, HEK293 T-REx with Gqi5); assay type: cell-based
T1 construct: expressed in transfected cells; host or cells: HEK293 T-REx, Tet-inducible, with chimeric G-protein Gqi5
Method: The resting concentration of calcium ions (Ca^2+) in the cells' cytoplasm is normally maintained in the range of 10-100 nM. To maintain this low concentration, Ca^2+ is actively pumped from the cytosol to the extracellular space and into the endoplasmic reticulum (ER), and sometimes into the mitochondria. Signaling occurs when the cell is stimulated to release Ca^2+ from intracellular stores. The most common signaling pathway that increases cytoplasmic calcium concentration is the phospholipase C (PLC) pathway. […] IP3 diffuses to the ER, binds to its receptor (IP3 receptor), which is a Ca^2+ channel and, thus, releases Ca^2+ from the ER to the cytosol. To measure this cytosolic Ca^2+ accumulation, we used the Screen Quest™ Fluo-8 Calcium Assay Kit (AAT Bioquest, Sunnyvale, Calif.). Acetoxymethyl (AM) esters bound to Fluo-8™ dye are non-polar molecules that easily cross live cell membranes transporting the dye inside the cell, and are then rapidly hydrolyzed by cellular esterases inside live cells. As Fluo-8™ is freed from AM esters, it binds to Ca^2+ and emits a fluorescent signal at 514 nm that escalates with increasing cytosolic Ca^2±. To measure this calcium flux signal, we used the Functional Drug Screening System (FDSS) (Hamamatsu, Japan), a high throughput screening device that allows optical detection of signal transmissions within living cells in a time-resolving fashion. […] Quest Fluo-8™ calcium reagent was freshly prepared prior to adding to the cells (lyophilized Fluo-8™ dye provided with the kit was re-suspended in 200 μL DMSO as a 500× stock and stored at −20° C.). 2 μL/well of Quest Fluo-8™ calcium dye diluted in HBSS +10 mM HEPES buffer (for every 10 mL buffer, 1 mL of 10× quencher provided in the kit and 20 μL of 500×DMSO stock dye were added) was added to cells with a Multi-Drop Combi (ThermoScientific) and incubated for 45-90 min in the dark at ambient temperature. Then, the plates were introduced into the FDSS where they were pinned with 23 nL of test compound or dopamine controls and were read by FDSS in non-stimulated mode for 180 sec for detection of agonists. […]

D2 GPCR receptor (DAR) = molecular target: T2, D2 GPCR receptor (DAR) (Homo sapiens, UniProt P14416); experiment: D2 beta-arrestin functional assay (PathHunter, CHO); assay type: cell-based; conditions: for D3/D2 beta-arrestin IC50ratio: ratio of D3 (Example 4) to D2 (Example 2) beta arrestin assay
T2 construct: host or cells: CHO PathHunter β-arrestin cells
Description: For a secondary-screen and selectivity assays, DAR PathHunter® β-arrestin GPCR cell lines from DiscoveRx (Fremont, Calif.). In this) were used. In the D2 Receptor PathHunter® β-arrestin GPCR cell line, the D2 GPCR receptor (DAR) is overexpressed and fused with a small 42-amino acid fragment of β-galactosidase called ProLink™ on a CHO cellular background expressing a fusion protein of β-arrestin and a larger N-terminal deletion mutant of β-galactosidase (“enzyme acceptor”). When DAR is activated by dopamine, it stimulates binding of β-arrestin to the ProLink-tagged DAR and the two complementary parts of β-galactosidase form a functional enzyme. When substrate (PathHunter® Detection reagent) is added, β-galactosidase hydrolyzes it and generates a chemiluminescent signal.
D2 Receptor PathHunter® β-arrestin cells were seeded at 2,100 cells/well in 3 μL/well media (DiscoveRx Plating Reagent 2) with MultiDrop Combi dispenser (Thermo Scientific, Logan, Utah) onto white tissue culture treated 1,536-well Aurora plates (Brooks Automation, Chelmsford, Mass.) and allowed to attach overnight at 37° C., 5% CO2. Next, 23 nL/well of compound solutions in DMSO were added with a pintool transfer (Kalypsis, San Diego, Calif.). The cells were stimulated by compounds for 90 min at 37° C., 5% CO2, after which 1.5 μL/well of DiscoveRx detection reagent was added with BioRAPTR FRD dispenser. The detection reagent was prepared by mixing of Galacton Star Substrate, Emerald II solution and PathHunter buffer (supplied by the assay kit) together at a 1:5:19 proportion just prior to dispensing. The plates were incubated at ambient temperature for 1 hr, and the luminescent signal was read on a ViewLux plate reader (PerkinElmer, Waltham, Mass.).

[1] = molecular target: D2L human dopamine receptors (Homo sapiens, UniProt P14416); experiment: D2 binding assay ([^3H]methylspiperone, HEK membranes); conditions: for D3/D2 binding Ki ratio: ratio of D3 (Example 5) to D2 (Example 3) binding assay
Method: Compounds were tested for differences in affinity between three dopamine receptor subtypes using radio-labeled ligand binding assays. The first assay determined the Ki value of the compounds for the D2 DAR subtype using stable HEK cell lines expressing the D2L human dopamine receptors (Codex Biosciences, Gaithersburg, Md.). Cells were cultured in Dulbecco's modified Eagle's Medium containing 10% FBS, 1,000 units/mL Penicillin, 1,000 mg/mL Streptomycin, 100 mM Sodium Pyruvate, 1 μg/mL Gentamicin, and […] G418. All cells were maintained at 37° C. in 5% CO2 and 90% humidity. For radioligand binding assays, cells were removed mechanically using calcium and magnesium-free Earle's Balanced Salt Solution (EBSS(−)). Intact cells were collected by centrifugation and then lysed with 5 mM Tris-HCl and 5 mM MgCl2 at pH 7.4 in a glass homogenizer. Homogenates were centrifuged at 20,000×g for 30 minutes. The membranes were re-suspended in EBSS (pH 7.4) and protein concentration was determined using a Bradford assay according to the manufacturer's recommendations (Bio-Rad). Membranes were diluted to 24 mg/mL. […] Membrane preparations were incubated for 90 min at room temperature with various concentrations of radioligand in a reaction volume of 250 μL EBSS containing 200 mM sodium metabisulfite. Non-specific binding was determined in the presence of 4 μM (+)-butaclamol. Bound ligand was separated from unbound by filtration through GF/C filters using a PerkinElmer cell harvester with ice cold EBSS (4 washes) and quantified on a Top-count (PerkinElmer) after addition of scintillation solution. […] In order to determine the affinity of a given compound for a receptor type, competition-binding assays were performed. […] Reactions were incubated, terminated, and quantified as indicated above.

[2] = molecular target: D3 dopamine receptor (DAR) (Homo sapiens, UniProt P35462); experiment: D3 beta-arrestin functional assay (PathHunter, CHO); assay type: cell-based; conditions: dose response curve; read-out: D3 β-arrestin assay AC50
Description: A CHO cell line was engineered to overexpress D3 dopamine receptor (DAR) and fused with a small 42-amino acid fragment of β-gal called ProLink™. In addition, these cells stably express a fusion protein of β-arrestin and a larger N-terminal deletion mutant of β-galactosidase (“enzyme acceptor”). When DAR is activated by dopamine, it stimulates binding of β-arrestin to ProLink-tagged DARs, and the two complementary parts of β-galactosidase form a functional enzyme. When substrate (PathHunter® Detection reagent) is added, βgalactosidase hydrolyzes it and generates a chemiluminescent signal.
For the 1,536-well assay, D3 PathHunter® β-arrestin cells were seeded at 2,100 cells/well in 3 μL/well media (DiscoveRx Plating Reagent 2) with MultiDrop Combi dispenser (Thermo Scientific, Logan, Utah) onto white tissue culture treated 1,536-well Aurora plates (Brooks Automation, Chelmsford, Mass.) and allowed to attach overnight at 37° C., 5% CO2. Next, 23 nL/well of compound solutions in DMSO were added with a pintool transfer (Kalypsis, San Diego, Calif.). The cells were stimulated by compounds for 90 minutes at 37° C., 5% CO2, after which 1.5 μL/well of DiscoveRx detection reagent was added with BioRAPTR FRD dispenser. […] The plates were incubated at ambient temperature for 1 h, and the luminescent signal was read on ViewLux plate reader (PerkinElmer, Waltham, Mass.).

[3] = molecular target: D3 human dopamine receptors (Homo sapiens, UniProt P35462); experiment: D3 binding assay ([^3H]methylspiperone, HEK293 membranes)
Method: Cells were cultured in Dulbecco's modified Eagle's Medium containing 10% FBS, 1,000 units/mL Penicillin, 1,000 mg/mL Streptomycin, 100 mM Sodium Pyruvate, 1 μg/mL Gentamicin, and […] G418. All cells were maintained at 37° C. in 5% CO2 and 90% humidity. For radioligand binding assays, cells were removed mechanically using calcium and magnesium-free Earle's Balanced Salt Solution (EBSS(−)). Intact cells were collected by centrifugation and then lysed with 5 mM Tris-HCl and 5 mM MgCl2 at pH 7.4 in a glass homogenizer. […] Membrane preparations were incubated for 90 min at room temperature with various concentrations of radioligand in a reaction volume of 250 μL EBSS containing 200 mM sodium metabisulfite. […] Bound ligand was separated from unbound by filtration through GF/C filters using a PerkinElmer cell harvester with ice cold EBSS (4 washes) and quantified on a Top-count (PerkinElmer) after addition of scintillation solution. […] In order to determine the affinity of a given compound for a receptor type, competition-binding assays were performed. […] Reactions were incubated, terminated, and quantified as indicated above.

[4] = dopamine D2 calcium release assay of Example 1, read-out: Ca^2+ AC50

D2L human dopamine receptors, sequence (P14416 whole entry): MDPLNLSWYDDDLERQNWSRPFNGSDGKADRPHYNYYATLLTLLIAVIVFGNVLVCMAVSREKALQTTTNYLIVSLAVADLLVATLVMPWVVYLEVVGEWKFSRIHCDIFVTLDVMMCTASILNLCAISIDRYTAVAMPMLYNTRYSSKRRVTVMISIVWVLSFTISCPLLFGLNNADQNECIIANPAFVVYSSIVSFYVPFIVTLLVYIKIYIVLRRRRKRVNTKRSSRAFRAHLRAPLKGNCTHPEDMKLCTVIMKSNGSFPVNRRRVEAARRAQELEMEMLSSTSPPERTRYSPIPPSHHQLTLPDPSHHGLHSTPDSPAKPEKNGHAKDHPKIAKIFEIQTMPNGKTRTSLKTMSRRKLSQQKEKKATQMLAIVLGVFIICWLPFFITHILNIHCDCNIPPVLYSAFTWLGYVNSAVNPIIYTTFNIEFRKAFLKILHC
T2 sequence (P14416 whole entry): as above
T1 sequence (P14416 whole entry): as above
D3 human dopamine receptors, sequence (P35462 whole entry): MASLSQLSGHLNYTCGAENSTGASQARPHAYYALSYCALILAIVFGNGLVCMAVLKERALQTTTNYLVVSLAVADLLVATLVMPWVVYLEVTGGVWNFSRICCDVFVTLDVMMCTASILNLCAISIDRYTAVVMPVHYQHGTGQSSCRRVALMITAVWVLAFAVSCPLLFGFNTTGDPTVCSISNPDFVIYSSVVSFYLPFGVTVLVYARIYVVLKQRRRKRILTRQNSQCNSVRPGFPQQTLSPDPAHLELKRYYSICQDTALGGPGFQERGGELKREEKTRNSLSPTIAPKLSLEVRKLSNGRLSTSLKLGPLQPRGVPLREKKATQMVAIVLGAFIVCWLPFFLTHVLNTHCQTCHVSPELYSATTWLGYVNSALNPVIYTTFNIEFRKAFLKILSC
D3 dopamine receptor (DAR), sequence (P35462 whole entry): as above

| Compound | AC50 (D2 DAR; [4]) [µM] | D3/D2 beta-arrestin IC50ratio (D2 GPCR receptor (DAR)) | D3/D2 binding Ki ratio [1] | AC50 (D2 DAR; dose response curve, read-out: D2 Ca^2+ assay AC50) [µM] | AC50 (D2 GPCR receptor (DAR); dose response curve, read-out: D2 β-arrestin assay AC50) [µM] | AC50 [2] [µM] | Ki [1] [µM] | Ki [3] [µM] |
| --- | --- | --- | --- | --- | --- | --- | --- | --- |
| CCN1C(=O)c2ccccc2[S@+]([O-])c2ccc(C(=O)N[C@H](C)c3ccc(Br)cc3)cc21 [Compound 49, (R)-N-(1-(4-Bromophenyl)ethyl)-10-ethyl-11-oxo-10,11-dihydrodibenzo[b,f][1,4]thiazepine-8-carboxamide 5-(S)-oxide] | < 1 | 7.1 | 1.3 | – | – | – | – | – |
| CN1C(=O)c2ccccc2[S@+]([O-])c2ccc(C(=O)NCc3cccnc3)cc21 [Compound 53, 10-Methyl-11-oxo-N-(pyridin-3-ylmethyl)-10,11-dihydrodibenzo[b,f][1,4]thiazepine-8-carboxamide 5-(S)-oxide] | < 1 | 5.0 | 70.0 | – | – | – | – | – |
| CN1C(=O)c2ccccc2[S+]([O-])c2ccc(C(=O)NCCc3cccs3)cc21 (racemic) [Compound 32, 10-Methyl-11-oxo-N-(2-(thiophen-2-yl)ethyl)-10,11-dihydrodibenzo[b,f][1,4]thiazepine-8-carboxamide 5-oxide] | < 1 | 22.3 | 28.7 | – | – | – | – | – |
| CCN1C(=O)c2ccccc2[S@+]([O-])c2ccc(C(=O)NCc3ccc(OC)cc3)cc21 [Compound 38, 10-Ethyl-N-(4-methoxybenzyl)-11-oxo-10,11-dihydrodibenzo[b,f][1,4]thiazepine-8-carboxamide 5-(S)-oxide] | < 1 | 2.5 | – | – | – | – | – | – |
| CN1C(=O)c2ccccc2[S@+]([O-])c2ccc(C(=O)NCCN3CCCC3)cc21 [Compound 54, 10-Methyl-11-oxo-N-(2-(pyrrolidin-1-yl)ethyl)-10,11-dihydrodibenzo[b,f][1,4]thiazepine-8-carboxamide 5-(S)-oxide] | < 1 | 7.2 | 1.7 | – | – | – | – | – |
| CCN1C(=O)c2ccccc2[S@+]([O-])c2ccc(C(=O)N[C@H](C)c3ccc4ccccc4c3)cc21 [Compound 50, (R)-10-Ethyl-N-(1-(naphthalen-2-yl)ethyl)-11-oxo-10,11-dihydrodibenzo[b,f][1,4]thiazepine-8-carboxamide 5-(S)-oxide] | < 1 | 11.2 | 16.2 | – | – | – | – | – |

Now from value to compound:

| AC50 (D2 DAR; [4]) [µM] | D3/D2 beta-arrestin IC50ratio (D2 GPCR receptor (DAR)) | D3/D2 binding Ki ratio [1] | AC50 (D2 DAR; dose response curve, read-out: D2 Ca^2+ assay AC50) [µM] | AC50 (D2 GPCR receptor (DAR); dose response curve, read-out: D2 β-arrestin assay AC50) [µM] | AC50 [2] [µM] | Ki [1] [µM] | Ki [3] [µM] | Compound |
| --- | --- | --- | --- | --- | --- | --- | --- | --- |
| < 1 | 2.0 | 6.0 | 0.281 | 2.89 | 5.76 | 0.08 | 0.48 | CCN1C(=O)c2ccccc2[S+]([O-])c2ccc(C(=O)NCc3ccc(OC)cc3)cc21 (stereo not drawn) [Compound 1, 10-Ethyl-N-(4-methoxybenzyl)-11-oxo-10,11-dihydrodibenzo[b,f][1,4]thiazepine-8-carboxamide 5-oxide] |
| < 1 | 5.6 | 2.6 | – | – | – | – | – | CCN1C(=O)c2ccccc2[S@+]([O-])c2ccc(C(=O)NCc3ccc(F)cc3)cc21 [Compound 47, 10-Ethyl-N-(4-fluorobenzyl)-11-oxo-10,11-dihydrodibenzo[b,f][1,4]thiazepine-8-carboxamide 5-(S)-oxide] |
| < 1 | 4.6 | 1.5 | – | – | – | – | – | CN1C(=O)c2ccccc2[S@+]([O-])c2ccc(C(=O)NCc3ccc(Br)cc3)cc21 [Compound 52, N-(4-bromobenzyl)-10-methyl-11-oxo-10,11-dihydrodibenzo[b,f][1,4]thiazepine-8-carboxamide 5-(S)-oxide] |
| < 1 | 4.5 | – | – | – | – | – | – | CN1C(=O)c2ccccc2[S@+]([O-])c2ccc(C(=O)NCc3ccc(Cl)cc3)cc21 [Compound 51, N-(4-Chlorobenzyl)-10-methyl-11-oxo-10,11-dihydrodibenzo[b,f][1,4]thiazepine-8-carboxamide 5-(S)-oxide] |
| < 1 | 6.3 | 5.7 | – | – | – | – | – | CCN1C(=O)c2ccccc2[S@+]([O-])c2ccc(C(=O)NCc3ccc(C#N)cc3)cc21 [Compound 48, N-(4-Cyanobenzyl)-10-ethyl-11-oxo-10,11-dihydrodibenzo[b,f][1,4]thiazepine-8-carboxamide 5-(S)-oxide] |
